Source: patent US4008274A, “Certain salicylanilides” (Yoshitomi Pharmaceutical Industries, Ltd., priority 1973, dated 1977)
In brackets after ≈: the same amount, converted by molar mass.

Assays:
[1] = tested on: Spirogyra; assay: Algicidal Activity; type: in vivo; parameters: key: 0: Brown algae on the bottom of the vessel. Destroyed and brown spiral chloroplasts (under a microscope).; 10: Vigorous algae growth. Vivid green spiral chloroplasts (under a microscope); details: 48 hours, 20°±2° C
Method: Tap water (4 liters) was poured into a glass vessel (15 × 20 × 21 cm). The vessel was kept in a greenhouse maintained at 20°±2° C. Then 1 ml (or 5 ml) of a solution prepared by dissolving 0.400 g of the test compound in 100 ml of 4:1 ethanol-acetone mixture was dropped into the vessel to attain the concentration of 1 ppm (or 5 ppm). As the control run, 1 ml (or 5 ml) of the solvent was dropped into the vessel. About 5 g of wet Spirogyra was put in the vessel. Clean air was introduced at a rate of 150 ml/min for 48 hours.
The algicidal acticity was evaluated by the following criteria:
0: Brown algae on the bottom of the vessel. Destroyed and brown spiral chloroplasts (under a microscope).
10: Vigorous algae growth. Vivid green spiral chloroplasts (under a microscope).

[2] = tested on: barnacles; assay: Barnacle Killing Activity; type: in vivo; details: after 48 hours, out of 30 living barnacles, 20°±2° C
Method: Seawater (4 liters) was poured into a glass vessel (15 × 20 × 21 cm). The water temperature was maintained at 20°±2° C. Clean air was introduced at a rate of 150 ml/min throughout the experiment. Then 1 ml (or 5 ml) of a solution prepared by dissolving 0.400 g of the test compound in 100 ml of 4:1 ethanol-acetone mixture was dropped into the vessel to attain the concentration of 1 ppm (or 5 ppm). As the control run, 1 ml (or 5 ml) of the solvent was dropped into the vessel. Of scores of barnacles sticking to a stone obtained from the sea-shore 30 living barnacles were selected at randum, the rest of the barnacles on the stone being neglected for the experiment. Such stone was put in the vessel. After 48 hours, the number of dead barnacles was counted.

[3] = tested on: Bacillus subtilis PCI 219; assay: Antibacterial Activity (agar dilution method), Bacillus subtilis PCI 219; type: cell-based; details: PCI219, 48 h; Bacillus subtilis PCI 219, nutrient agar, 37° C, 2 days; read-out: minimal inhibitory concentration (MIC)
Method: (§1) The minimal inhibitory concentration (MIC; mcg/ml) of the test compounds determined by the agar dilution method on the nutrient agar medium is shown in TABLE III. The procedure is as follows: The test compound was mixed with the nutrient agar medium and the medium was allowed to coagulate. A solution containing Staphylococcus aureus FDA 2099 or Bacillus subtilis PCI 219 was inoculated into the medium and cultivated at 37° C for 2 days.

[4] = tested on: Staphylococcus aureus FDA 2099; assay: Antibacterial Activity (agar dilution method), Staphylococcus aureus FDA 2099; type: cell-based; details: FDA2099, 48 h; Staphylococcus aureus FDA 2099, nutrient agar, 37° C, 2 days; read-out: minimal inhibitory concentration (MIC)
Method: as §1

[5] = Percutaneous toxicity; details: mouse, in vivo, topical or ocular; dd-strain female mice, 10% solution in acetone on shaved backs
Method: Percutaneous LD50 values were determined in dd-strain female mice by applying a 10% solution of the test compound in acetone on the shaved backs.

[6] = Oral toxicity (Litchfield-Wilcoxon method); details: mouse, in vivo, dd-strain female mice, 25% suspension in water containing 0.5% carboxymethylcellulose
Method: Oral LD50 values were determined in dd-strain female mice according to the conventional Litchfield-Wilcoxon method. The test compound was administered as a 25% suspension in water containing 0.5% carboxymethylcellulose.

SMILES | algicidal activity score ([1]; 1 ppm) | algicidal activity score ([1]; 5 ppm) | number of dead barnacles ([2]; 1 ppm) | number of dead barnacles ([2]; 5 ppm) | MIC [3] [µg/mL] | MIC [4] [µg/mL] | LD50 [5] [mg/kg] | LD50 [6] [mg/kg]
Cc1ccc(O)c(C(=O)Nc2ccc([N+](=O)[O-])cc2)c1 [compound 4] | 10 | 0 | – | – | – | – | – | –
CSc1cccc(NC(=O)c2cc(C(C)(C)C)ccc2O)c1 [compound 14] | 10 | 0 | 3 | 30 | 5 (≈ 15.9 µM) | 5 (≈ 15.9 µM) | – | –
COc1ccc(NC(=O)c2cc(C(C)(C)C)ccc2O)cc1 [compound 17] | 10 | 0 | – | – | – | – | – | –
CCC(C)(C)c1ccc(O)c(C(=O)Nc2ccc([N+](=O)[O-])c(C)c2)c1 [compound 19] | 0 | 0 | 2 | 30 | 0.5 (≈ 1.46 µM) | 0.5 (≈ 1.46 µM) | – | –
Cc1ccc(O)c(C(=O)Nc2ccc([N+](=O)[O-])cc2C)c1 [Test Compound 1, 2',5-dimethyl-4'-nitrosalicylanilide] | 0 | 0 | 10 | 30 | 2 (≈ 6.99 µM) | 5 (≈ 17.5 µM) | – | –
CC(C)(C)c1ccc(O)c(C(=O)Nc2ccc([N+](=O)[O-])cc2)c1 [compound 13] | – | – | 22 | 30 | 1 (≈ 3.18 µM) | 2 (≈ 6.36 µM) | – | –
O=C(Nc1ccc(Br)cc1)c1cc(Br)cc(Br)c1O [Tribromsalan, 3,4',5-Tribromosalicylanilide, reference compound] | – | – | – | – | – | – | > 2000 | 124
CCC(C)(C)c1ccc(O)c(C(=O)Nc2ccc([N+](=O)[O-])cc2)c1 [compound 21] | 0 | 0 | 25 | 30 | 1 (≈ 3.05 µM) | 1 (≈ 3.05 µM) | – | –
COc1cc([N+](=O)[O-])ccc1NC(=O)c1cc(C)ccc1O [compound 6] | – | – | 2 | 20 | – | – | – | –
CSc1cccc(NC(=O)c2cc(C)ccc2O)c1 [compound 5] | – | – | 2 | 18 | – | – | – | –
Cc1cc([N+](=O)[O-])ccc1NC(=O)c1cc(C(C)(C)C)ccc1O [Test Compound 10, 5-Tert-butyl-2'-methyl-4'-nitrosalicylanilide] | – | – | – | – | – | – | > 5000 | > 10000
Cc1cc([N+](=O)[O-])ccc1NC(=O)c1cc(C(C)C)ccc1O [compound 7] | 0 | 0 | 14 | 30 | 5 (≈ 15.9 µM) | 5 (≈ 15.9 µM) | – | –
CCC(C)(C)c1ccc(O)c(C(=O)Nc2ccc([N+](=O)[O-])cc2OC)c1 [compound 23] | 0 | 0 | 6 | 30 | 5 (≈ 14 µM) | 5 (≈ 14 µM) | – | –
Cc1ccc(O)c(C(=O)Nc2cc([N+](=O)[O-])ccc2C)c1 [compound 3] | – | – | 3 | 30 | 10 (≈ 34.9 µM) | 10 (≈ 34.9 µM) | – | –
Cc1cccc(NC(=O)c2cc(C(C)(C)C)ccc2O)c1C [Test Compound 16, 5-Tert-butyl-2',3'-dimethylsalicylanilide] | – | – | – | – | – | – | > 5000 | > 10000
COc1cc([N+](=O)[O-])ccc1NC(=O)c1cc(C(C)(C)C)ccc1O [compound 15] | – | – | 9 | 30 | – | – | – | –
Cc1cc([N+](=O)[O-])ccc1NC(=O)c1cc(C(C)(C)C)ccc1O [compound 10] | 0 | 0 | 30 | 30 | 0.5 (≈ 1.52 µM) | 1 (≈ 3.05 µM) | – | –
CCC(C)(C)c1ccc(O)c(C(=O)Nc2cc([N+](=O)[O-])ccc2C)c1 [compound 20] | 0 | 0 | 30 | 30 | 1 (≈ 2.92 µM) | 1 (≈ 2.92 µM) | – | –
Cc1cc([N+](=O)[O-])ccc1NC(=O)c1cc(C(C)(C)CC(C)(C)C)ccc1O [compound 24] | – | – | – | – | 1 (≈ 2.6 µM) | 1 (≈ 2.6 µM) | – | –
CCC(C)(C)c1ccc(O)c(C(=O)Nc2ccc([N+](=O)[O-])cc2C)c1 [compound 18] | 0 | 0 | 30 | 30 | 0.5 (≈ 1.46 µM) | 0.5 (≈ 1.46 µM) | – | –
CC(C)c1ccc(O)c(C(=O)Nc2ccc([N+](=O)[O-])cc2)c1 [compound 9] | 0 | 0 | 20 | 30 | 5 (≈ 16.6 µM) | 5 (≈ 16.6 µM) | – | –
Cc1ccc(O)c(C(=O)Nc2ccc([N+](=O)[O-])c(C)c2)c1 [Test Compound 2, 3',5-Dimethyl-4'-nitrosalicylanilide] | 0 | 0 | 2 | 30 | – | – | – | –
Cc1cccc(NC(=O)c2cc(C(C)(C)C)ccc2O)c1C [compound 16] | 10 | 0 | 4 | 30 | – | – | – | –
Cc1cc(NC(=O)c2cc(C(C)(C)C)ccc2O)ccc1[N+](=O)[O-] [compound 11] | 10 | 0 | 30 | 30 | 1 (≈ 3.05 µM) | 1 (≈ 3.05 µM) | – | –
Cc1ccc([N+](=O)[O-])cc1NC(=O)c1cc(C(C)C)ccc1O [compound 8] | 10 | 0 | 16 | 30 | 5 (≈ 15.9 µM) | 5 (≈ 15.9 µM) | – | –
CCC(C)(C)c1ccc(O)c(C(=O)Nc2cccc(SC)c2)c1 [compound 22] | 10 | 0 | – | – | – | – | – | –
Cc1ccc([N+](=O)[O-])cc1NC(=O)c1cc(C(C)(C)C)ccc1O [compound 12] | 10 | 0 | 30 | 30 | 2 (≈ 6.09 µM) | 2 (≈ 6.09 µM) | – | –
